Reference: patent US10822317B2, “Methods and compositions for wound healing” (QBiotics Limited, priority 2013, dated 2020)

What was measured:
[1] = tested on: human peripheral blood monocytes; assay: Differentiation of monocytes into macrophages; assay type: cell-based; conditions: 10-fold dilutions; 4 days; adherence and morphology
Procedure: To determine potential effects of Compound 1 and fifteen other epoxy-tigliane compounds in the array on monocyte differentiation, human peripheral blood mononuclear cells (PBMCs) were isolated by Ficoll-Paque sedimentation of heparinised blood from a human donor, and plated at 100,000 cells/well in RPMI-1640 10% FCS. Duplicate wells were treated with 10-fold dilutions of the compounds and incubated at 37° C. for 4 days. The wells were scored visually for cell attachment and morphology, then washed twice with PBS, stained with sulfurhodamine and the incorporate stain quantitated in an ELISA reader. The plates were then washed with water and stained with 1% crystal violet in methanol for photography and scoring of adherent cell morphology.

[2] = tested on: human peripheral blood mononuclear cells (PBMCs); assay: Cytokine production by PBMCs (Cytometric Bead Array); assay type: cell-based; conditions: 24 hr, ± standard deviation
Excerpt: Specific cytokines play critical roles in wound healing processes, and agents that modulate these substances may be useful in treating wounds and/or improving the cosmetic outcomes of healing (e.g. reduced scarring). The effects of Compounds 1, 2, 5 and 42 on regulation of four cytokines (IL-1β, IL-6, IL-8 and TNFα) known to be critical in early stages of the wound healing process were investigated in human peripheral blood mononuclear cells (PBMCs).
PBMCs were isolated by Ficoll-Paque sedimentation of heparinised blood acquired from both a person (Donor 1) and (Donor 2) human donor. All cells were cultured in 10% FCS, RPMI as detailed previously.
PBMCs were seeded at a density of 1.5×10^5 cells per well in 10% FCS, RPMI. Stimulation of these cells with the four compounds was performed at four concentrations (0 ng/mL, 3 ng/mL, 30 ng/mL, 300 ng/mL) in duplicate for 24 h in a humidified incubator at 37° C., 5% CO2. Media samples were taken from each of the required wells and frozen at −80° C. until use.
Cytometric Bead Array (CBA) assays were used to measure the results. CBA assays provide a method for capturing a soluble analyte or set of analytes using antibody coated beads of known sizes and fluorescence. Detection is then performed using another fluorescently labelled secondary antibody to form a sandwich complex. Each media sample was assayed for the presence of soluble […], IL-6, IL-8, IL-10, IL-12p70 and TNFα using a BD (Becton Dickinson) CBA Human Inflammatory Cytokine Detection Kit according to manufacturers' instructions. Mean fluorescence intensity values from each sample were compared against a standard curve to determine cytokine concentrations (pg/mL).

Compound	Differentiation endpoint (endpoint concentration in dilution series for induction of macrophage phenotype) [1]	IL-1β level ([2]; Donor 1, 3 ng/mL)	IL-6 level ([2]; Donor 1, 3 ng/mL)	IL-8 level ([2]; Donor 1, 3 ng/mL)	TNFα level ([2]; Donor 1, 3 ng/mL)	IL-1β level ([2]; Donor 1, 30 ng/mL)	IL-6 level ([2]; Donor 1, 30 ng/mL)	IL-8 level ([2]; Donor 1, 30 ng/mL)	TNFα level ([2]; Donor 1, 30 ng/mL)	IL-1β level ([2]; Donor 1, 300 ng/mL)	IL-6 level ([2]; Donor 1, 300 ng/mL)	IL-8 level ([2]; Donor 1, 300 ng/mL)	TNFα level ([2]; Donor 1, 300 ng/mL)	IL-1β level ([2]; Donor 2, 3 ng/mL)	IL-6 level ([2]; Donor 2, 3 ng/mL)	IL-8 level ([2]; Donor 2, 3 ng/mL)	TNFα level ([2]; Donor 2, 3 ng/mL)	IL-1β level ([2]; Donor 2, 30 ng/mL)	IL-6 level ([2]; Donor 2, 30 ng/mL)	IL-8 level ([2]; Donor 2, 30 ng/mL)	further results
CC=C(C)C(=O)OC1C(C)C2(O)C(C3OC3(CO)C(O)C3(O)C(=O)C(C)=CC32)C2C(C)(C)C12OC(=O)C(C)CC (centres unmarked) [Compound 1, 12-tigloyl-13-(2-methylbutanoyl)-6,7-epoxy-4,5,9,12,13,20-hexahydroxy-1-tigliaen-3-one]	1 ng/mL	1.2 ± 0.2 pg/mL	9.7 ± 1.2 pg/mL	1720 ± 157 pg/mL	24.3 ± 1.4 pg/mL	11.9 ± 0.8 pg/mL	34.2 ± 1.1 pg/mL	16920 ± 1198 pg/mL	324.4 ± 0.0 pg/mL	39 ± 0.2 pg/mL	89.5 ± 13.8 pg/mL	16419 ± 40 pg/mL	355.0 ± 4.3 pg/mL	3.1 ± 0.9 pg/mL	8.3 ± 0.4 pg/mL	1493 ± 2 pg/mL	11.2 ± 0.3 pg/mL	43.9 ± 1.7 pg/mL	12.6 ± 0.9 pg/mL	24078 ± 815 pg/mL	TNFα level ([2]; Donor 2, 30 ng/mL): 209.6 ± 7.5 pg/mL; IL-1β level ([2]; Donor 2, 300 ng/mL): 121.6 ± 5.6 pg/mL; IL-6 level ([2]; Donor 2, 300 ng/mL): 38.8 ± 9.0 pg/mL; IL-8 level ([2]; Donor 2, 300 ng/mL): 32021 ± 1156 pg/mL; TNFα level ([2]; Donor 2, 300 ng/mL): 592.2 ± 24.7 pg/mL
CCC(C)C(=O)OC1C(C)C2(O)C(C3OC3(CO)C(O)C3(O)C(=O)C(C)=CC32)C2C(C)(C)C12OC(=O)C(C)CC (centres unmarked) [Compound 2, 12,13-di-(2-methylbutanoyl)-6,7-epoxy-4,5,9,12,13,20-hexahydroxy-1-tigliaen-3-one]	1 ng/mL	1.4 ± 1.2 pg/mL	9.1 ± 0.2 pg/mL	2099 ± 585 pg/mL	31.15 ± 6.9 pg/mL	1.21 ± 0.4 pg/mL	38 ± 3.9 pg/mL	18229 ± 2592 pg/mL	314.07 ± 37.9 pg/mL	37.7 ± 4.6 pg/mL	84.1 ± 3.6 pg/mL	16634 ± 625 pg/mL	330.0 ± 28.7 pg/mL	6.7 ± 1.5 pg/mL	14.9 ± 1.1 pg/mL	2608 ± 309 pg/mL	27.3 ± 8.3 pg/mL	52.6 ± 5.0 pg/mL	14.5 ± 3.3 pg/mL	26401 ± 271 pg/mL	TNFα level ([2]; Donor 2, 30 ng/mL): 211.5 ± 12.4 pg/mL; IL-1β level ([2]; Donor 2, 300 ng/mL): 123.9 ± 1.0 pg/mL; IL-6 level ([2]; Donor 2, 300 ng/mL): 41.4 ± 2.3 pg/mL; IL-8 level ([2]; Donor 2, 300 ng/mL): 34117 ± 630 pg/mL; TNFα level ([2]; Donor 2, 300 ng/mL): 618.1 ± 63.7 pg/mL
